According to patent US10683297B2 (Sunshine Lake Pharma Co., Ltd., priority 2017, dated 2020):

Columns and labels:
[1] = Pharmacokinetics after intravenous and oral administration in rats; type: in vivo; details: for Clearance (CL) after iv dosing / AUC(0-t) / half-life / Vd: dose 1 mg/kg (Ex. 9: 0.6, Ex. 18: 0.5, Ex. 50: 0.96 mg/kg), iv dosing; for AUC(0-t) / half-life / Vd / bioavailability: rat, plasma; for Vd: read-out: Vss; for bioavailability: oral (generally 5 or 10 mg/kg) versus iv dosing, read-out: F (oral bioavailability)
Method: (§1) The LC/MS/MS system used in the analysis consists of an Agilent 1200 Series vacuum degasser, binary pump, well-plate autosampler, thermostatted column compartment, the Agilent G6430 Triple Quadrupole Mass Spectrometer with an electrosprayionization (ESI) source. Quantitative analysis was carried out using MRM mode. The parameters for MRM transitions are in the Table A.
(§2) An Agilent XDB-C18, 2.1×30 mm, 3.5 μM column was used for the analysis. 5 μL of the samples were injected. Analysis condition: The mobile phase was 0.1% formic acid in water (A) and 0.1% formic acid in methanol (B). The flow rate was 0.4 mL/min. And the gradient of Mobile phase was in the Table B.
(§3) Alternatively, an Agilent 6330 series LC/MS/MS spectrometer equipped with G1312A binary pumps, a G1367A autosampler and a G1314C UV detector were used in the analysis. An ESI source was used on the LC/MS/MS spectrometer. The analysis was done in positive ion mode as appropriate and the MRM transition for each analyte was optimized using standard solution. A Capcell MP-C18 100×4.6 mm I.D., 5 uM column (Phenomenex, Torrance, Calif., USA) was used during the analysis. The mobile phase was 5 mM ammonia acetate, 0.1% MeOH in water (A): 5 mM ammonia acetate, 0.1% MeOH in acetonitrile (B) (70/30, v/v). The flow rate was 0.6 mL/min. Column was maintained at ambient temperature. 20 μL of the samples were injected.
The compounds disclosed herein are assessed in pharmacokinetic studies in mice, rats, dogs or monkeys. The compounds are administered as a water solution, 2% HPMC+1% TWEEN®80 in water solution, 5% DMSO+5% solutol in saline, 4% MC suspension or capsule. For the intravenous administration, the animals are generally given at about 0.5, 0.6, 1 or 2 mg/kg dose. For the oral (p.o.) dosing, mice and rats are generally given 5 or 10 mg/kg dose, and dogs and monkeys are generally given 10 mg/kg dose. The blood samples (0.3 mL) are drawn at 0.25, 0.5, 1.0, 2.0, 3.0, 4.0, 6.0, 8.0, 12 and 24 h time points or 0.083, 0.25, 0.5, 1.0, 2.0, 4.0, 6.0, 8.0 and 24 h time points and centrifuged at 3,000 or 4000 rpm for 2 to 10 min. The plasma solutions are collected, and stored at […] until analyzed by LC/MS/MS as described above.

[2] = Compound stability in human liver microsomes; type: in vitro ADME; details: for half-life at 5 μM: human liver microsomes 0.5 mg protein/mL, compound 5 μM, NADPH 1.0 mM, pH 7.4, 37° C., read-out: Human T1/2; for CLint scaled at 5 μM: liver microsomes, pH 7.4, in vivo CLint extrapolated from human liver microsome incubation
Method: as §1, §2, §3
(§4) Human or rat liver microsomes incubations were conducted in duplicate in polypropylene tubes. The typical incubation mixtures consisted of human or rat liver microsomes (0.5 mg protein/mL), compounds of interest (5 μM) and NADPH (1.0 mM) in a total volume of 200 μL potassium phosphate buffer (PBS, 100 mM, pH 7.4). Compounds were dissolved in DMSO and diluted with PBS such that the final concentration of DMSO was 0.05%. The enzymatic reactions were commenced with the addition of […] after a 3-min preincubation and incubated in a water bath open to the air at 37° C. Reactions were terminated at various time points (0, 5, 10, 15, 30, 60 min) by adding equal volume of ice-cold acetonitrile. The samples were stored at […] until LC/MS/MS assays.
(§5) The concentrations of compounds in the incubation mixtures of human or rat liver microsomes were determined by a LC/MS/MS method. The ranges of the linearity in the concentration range were determined for each tested compounds.
(§6) A parallel incubation was performed using denatured microsomes as the negative control, and reactions were terminated at various time points (0, 15, 60 min) after incubation at 37° C.
(§7) Dextromethorphan (70 μM) was selected as the positive control, and reactions were terminated at various time points (0, 5, 10, 15, 30, 60 min) after incubation at 37° C. Both positive and negative control samples were included in each assay to ensure the integrity of the microsomal incubation system.
(§8) The concentrations of compounds in human or rat liver microsome incubations were plotted as a percentage of the relevant zero time point control for each reaction. The in vivo CLint were extrapolated (ref.: Naritomi, Y.; Terashita, S.; Kimura, S.; Suzuki, A.; Kagayama, A.; and Sugiyama, Y.; Prediction of human hepatic clearance from in vivo animal experiments and in vitro metabolic studies with liver microsomes from animals and humans. Drug Metab. Dispos., 2001, 29: 1316-1324).

[3] = Compound stability in rat liver microsomes; type: in vitro ADME; details: for CLint scaled at 5 μM: liver microsomes, pH 7.4, in vivo CLint extrapolated from rat liver microsome incubation; for half-life at 5 μM: rat liver microsomes 0.5 mg protein/mL, compound 5 μM, NADPH 1.0 mM, pH 7.4, 37° C., read-out: Rat T1/2
Method: as §1, §2, §3, §4, §5, §6, §7, §8

Clearance (CL) after iv dosing [1] [mL/min/kg]	AUC(0-t) [1] [ng·h/mL]	half-life [1] [min]	Vd [1] [L/kg]	bioavailability [1] [%]	half-life at 5 μM [2] [min]	CLint scaled at 5 μM [2] [mL/min/kg]	CLint scaled at 5 μM [3] [mL/min/kg]	half-life at 5 μM [3] [min]	Structure (SMILES)
19	909	43.8	1.05	35.1	22.3	78.1	75.4	32.9	N#Cc1ccc(N2CCC(Nc3nc(Nc4ccn5ccnc5c4)ncc3Cl)CC2)nn1 [Example 4, 6-(4-((5-chloro-2-(imidazo[1,2-a]pyridin-7-ylamino)pyrimidin-4-yl)amino)piperidin-1-yl)pyridazine-3-carbonitrile]
7.17	2340	265	0.56	42.7	–	–	–	–	CCC1CN(c2ccc(C#N)cn2)CCC1Nc1nc(Nc2ccn3cnnc3c2)ncc1Cl (stereo not shown) [Example 5, 6-(4-((2-([1,2,4]triazolo[4,3-a]pyridin-7-ylamino)-5-chloropyrimidin-4-yl)amino)-3-ethylpiperidin-1-yl)nicotinonitrile]
6.33	2690	283	0.76	71	–	–	–	–	CCC1CN(c2ccc(C#N)cn2)CCC1Nc1nc(Nc2ccn3ccnc3c2)ncc1Cl (stereo not shown) [Example 6, 6-(4-((5-chloro-2-(imidazo[1,2-a]pyridin-7-ylamino)pyrimidin-4-yl)amino)-3-ethylpiperidin-1-yl)nicotinonitrile]
–	–	–	–	–	148	11.7	112	22.2	CCC1CN(c2ccc(C#N)nn2)CCC1Nc1nc(Nc2ccn3cnnc3c2)ncc1Cl (stereo not shown) [Example 7, 6-(4-((2-([1,2,4]triazolo[4,3-a]pyridin-7-ylamino)-5-chloropyrimidin-4-yl)amino)-3-ethylpiperidin-1-yl)pyridazine-3-carbonitrile]
20.8	547	48.6	1.13	69.1	71.9	24.2	303	8.21	CN(c1nc(Nc2ccc3ncnn3c2)ncc1Cl)C1CCN(c2ccc(C#N)cn2)CC1 [Example 9, 6-(4-((2-([1,2,4]triazolo[1,5-a]pyridin-6-ylamino)-5-chloropyrimidin-4-yl) (methyl)amino)piperidin-1-yl)nicotinonitrile]
–	–	–	–	–	330	5.26	0.34	5050	CCC1CN(c2ccc(C#N)nn2)CCC1N(C)c1nc(Nc2ccn3c(C)cnc3c2)ncc1Cl (stereo not shown) [Example 11, 6-(4-((5-chloro-2-((3-methylimidazo[1,2-a]pyridin-7-yl)amino)pyrimidin-4-yl)(methyl)amino)-3-ethylpiperidin-1-yl)pyridazine-3-carbonitrile]
–	–	–	–	–	22	78.9	834	2.98	CCC1CN(c2ccc(C#N)nn2)CCC1Nc1nc(Nc2ccn3c(C4CC4)cnc3c2)ncc1Cl (stereo not shown) [Example 15, 6-(4-((5-chloro-2-((3-cyclopropylimidazo[1,2-a]pyridin-7-yl)amino)pyrimidin-4-yl)amino)-3-ethylpiperidin-1-yl)pyridazine-3-carbonitrile]
17.8	949	36	0.67	48.2	44	39.5	302	8.22	CCC1CN(c2ccc(C#N)cn2)CCC1Nc1nc(Nc2ccn3c(C)nnc3c2)ncc1Cl (stereo not shown) [Example 17, 6-(4-((5-chloro-2-((3-methyl-[1,2,4]triazolo[4,3-a]pyridin-7-yl)amino)pyrimidin-4-yl)amino)-3-ethylpiperidin-1-yl)nicotinonitrile]
13.2	638	35.4	0.5	79.4	–	–	–	–	N#Cc1ccc(N2CCC(Nc3nc(Nc4cnn5ccnc5c4)ncc3Cl)CC2)nc1 [Example 18, 6-(4-((5-chloro-2-(imidazo[1,2-b]pyridazin-7-ylamino)pyrimidin-4-yl)amino)piperidin-1-yl)nicotinonitrile]
–	–	–	–	–	388	4.5	11.7	213	Cc1cn2c(C)cnc2cc1Nc1ncc(Cl)c(NC2CCN(c3ccc(C#N)nn3)CC2)n1 [Example 22, 6-(4-((5-chloro-2-((3,6-dimethylimidazo[1,2-a]pyridin-7-yl)amino)pyrimidin-4-yl)amino)piperidin-1-yl)pyridazine-3-carbonitrile]
19.7	844	63	1.68	63	–	–	–	–	Cc1cnc2cc(Nc3ncc(Cl)c(NC4CCN(c5ccc(C#N)cn5)CC4)n3)ccn12 [Example 23, 6-(4-((5-chloro-2-((3-methylimidazo[1,2-a]pyridin-7-yl)amino)pyrimidin-4-yl)amino)piperidin-1-yl)nicotinonitrile]
11.5	1460	55.8	0.83	47.8	–	–	–	–	Cc1cn2ncc(Nc3ncc(Cl)c(NC4CCN(c5ccc(C#N)cn5)CC4)n3)cc2n1 [Example 37, 6-(4-((5-chloro-2-((2-methylimidazo[1,2-b]pyridazin-7-yl)amino)pyrimidin-4-yl)amino)piperidin-1-yl)nicotinonitrile]
–	–	–	–	–	198	8.8	57.9	42.9	CCC1CN(c2ccc(C#N)cn2)CCC1Nc1nc(Nc2ccn3c(C(C)(C)O)nnc3c2)ncc1Cl (stereo not shown) [Example 41]
–	–	–	–	–	31.6	54.9	73.1	34	CC(O)Cn1cnc2ncc(Nc3ncc(Cl)c(NC4CCN(c5ccc(C#N)cn5)CC4)n3)cc21 (stereo not shown) [Example 51, 6-(4-((5-chloro-2-((1-(2-hydroxypropyl)-1H-imidazo[4,5-b]pyridin-6-yl)amino)pyrimidin-4-yl)amino)piperidin-1-yl)nicotinonitrile]
